Several values for one entry are separate records, joined by “and”; a condition that tells them apart may be missing. Equal values may be shown once. Entries after “also recorded” stand apart in the source; their conditions may differ.
Legend:
[1] = system: C57B/L6 mice exposed to bleomycin; test: Example 1: prophylactic treatment of mice exposed to bleomycin (IPF model); format: in vivo, mouse
Description: 4-(5-phenyl-3-{3-[3-(4-trifluoromethyl-phenyl)-ureido]-propyl}-pyrazol-1-yl)-benzenesulfonamide (PTUPB) [termed OX1] was compared to Pirfenidone, Nintedanib, and GSK225629415 [termed OX3] for treatment of IPF using an established model for IPF treating, which is prophylactic treatment of mice exposed to the chemotherapeutic agent bleomycin. […] Pirfenidone and Nintedanib are standard of care for the treatment of idiopathic pulmonary fibrosis and served as reference compounds in the experiment.
C57B/L6 mice were used in the experiments. When used, Bleomycin was administered intra-oropharyngeally, 1.5 U/kg, QD per established protocol. The test articles were dosed via oral gavage in 200 μL/day vehicle. The doses and formulations of test articles were selected based on the literature describing the lowest doses capable of eliciting pharmacological action.
Animals were dosed with the test articles (or vehicle) starting at day −1 to day 20. On day 1, daily doses of Bleomycin commenced in all but group 1 (negative control) which received the vehicle. On day 21, all animals were weighed and sacrificed. After lungs and bronco-alveolar lavage fluid (BALF) were harvested, they were prepared according to standard procedures for further analysis and histology. All animals were assessed twice a week for body weight and overall appearance. Efficacy endpoints measured in this study included lung weight, total leukocytes, and histology as determined by Mason's Trichrome stain and scored using a modified Ashcroft score.
The following parameters were measured in bronchoalveolar fluid (BALF): 1) soluble collagen and 2) differential leukocyte counts for different leukocyte populations.
After weighing and removal of BALF from the lungs, they were inflated and fixed using 10% neutral buffered formalin for histopathology analysis. Fifty-four formalin-fixed lung samples from mice were submitted to HistoTox Labs and were processed routinely. Two slides from each block were sectioned and stained with hematoxylin and eosin (H&E) or Masson's trichrome. Glass slides were evaluated with light microscopy by a board-certified veterinary pathologist. Lung sections were scored according to the modified Ashcroft scale.

human sEH = biological target: T1, human sEH (Homo sapiens, UniProt P34913); test: sEH inhibition IC50, fluorescent-based assay with purified recombinant sEH; format: biochemical
T1 sequence (P34913 1-555): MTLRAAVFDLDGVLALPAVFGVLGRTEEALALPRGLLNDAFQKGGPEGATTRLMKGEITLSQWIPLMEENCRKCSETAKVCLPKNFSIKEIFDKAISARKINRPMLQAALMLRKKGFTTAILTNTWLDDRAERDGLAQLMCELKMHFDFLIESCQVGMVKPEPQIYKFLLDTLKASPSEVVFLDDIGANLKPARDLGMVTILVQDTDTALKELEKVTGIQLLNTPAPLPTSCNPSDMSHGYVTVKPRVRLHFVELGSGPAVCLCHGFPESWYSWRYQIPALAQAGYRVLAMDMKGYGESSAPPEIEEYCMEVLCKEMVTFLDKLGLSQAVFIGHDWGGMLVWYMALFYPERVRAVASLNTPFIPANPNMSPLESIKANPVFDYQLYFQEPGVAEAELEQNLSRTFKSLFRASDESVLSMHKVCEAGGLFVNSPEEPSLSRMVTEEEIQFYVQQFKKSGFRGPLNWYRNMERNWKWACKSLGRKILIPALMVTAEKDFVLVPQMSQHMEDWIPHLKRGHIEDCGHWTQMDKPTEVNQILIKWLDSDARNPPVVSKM
Experimental: sEH inhibition IC50 values for the compounds presented herein can be assayed by a recombinant affinity assay using purified sEHs, from human, mouse or rat, in a fluorescent-based assay. In such an assay, enzymes, e.g., ˜1 nM human sEH, are incubated with a potential inhibitors for 5 min in 25 mM Bis-Tris/HCl buffer (200 μL; pH 7.0) at 30° C. before a substrate, e.g., cyano(2-methoxynaphthalen-6-yl)methyl trans-(3-phenyl-oxyran-2-yl)methyl carbonate, (CMNPC) is added ([S]final=5 μM).

COX-2 = biological target: T2, COX-2 (Homo sapiens, UniProt P35354); test: COX-2 inhibition IC50, COX Fluorescent Inhibitor Screening Assay; format: biochemical
T2 construct: purchased Cayman Chemical 700100
T2 sequence (P35354 18-604): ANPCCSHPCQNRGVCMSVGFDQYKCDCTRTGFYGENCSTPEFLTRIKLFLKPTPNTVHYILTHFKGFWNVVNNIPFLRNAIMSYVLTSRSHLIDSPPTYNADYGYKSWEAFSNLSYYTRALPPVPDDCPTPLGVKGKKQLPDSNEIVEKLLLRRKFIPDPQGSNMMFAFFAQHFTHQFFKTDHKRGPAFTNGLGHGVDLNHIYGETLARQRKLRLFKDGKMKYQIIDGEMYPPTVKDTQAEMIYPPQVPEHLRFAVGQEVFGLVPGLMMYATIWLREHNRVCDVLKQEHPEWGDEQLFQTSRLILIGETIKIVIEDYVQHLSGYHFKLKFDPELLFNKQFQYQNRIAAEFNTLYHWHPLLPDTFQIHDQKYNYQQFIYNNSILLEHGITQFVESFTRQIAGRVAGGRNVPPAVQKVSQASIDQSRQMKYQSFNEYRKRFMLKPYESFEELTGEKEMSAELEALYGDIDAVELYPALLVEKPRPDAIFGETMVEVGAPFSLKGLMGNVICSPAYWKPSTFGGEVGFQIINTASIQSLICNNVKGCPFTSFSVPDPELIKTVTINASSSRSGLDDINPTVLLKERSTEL
Experimental: A COX Fluorescent Inhibitor Screening Assay Kit (catalog number 700100, Cayman Chemical, Ann Arbor, Mich.) is useful for assaying the ability of the compounds provided herein to inhibit ovine COX-1 and human recombinant COX-2 (% inhibition at 100 μM and IC50 values (M), respectively). Stock solutions of test compounds are dissolved in a minimum volume of DMSO. 10 μl of various concentrations of the test compound solutions, e.g., [I]final between 0.01 and 100 μM, are added to a series of supplied reaction buffer solutions (150 μl, 100 mM Tris-HCl, pH 8.0) with either COX-1 or COX-2 (10 μl) enzyme in the presence of Heme (10 μl) and a fluorometric substrate (10 μl). The reactions are initiated by quickly adding 10 μl of arachidonic acid solution and then incubating the system for two minutes at room temperature. Fluorescence of resorufin, which is produced by the reaction between PGG2 and fluorometric substrate, ADHP (10-acetyl-3,7-dihydroxyphenoxazine), is analyzed with an excitation wavelength of 535 nm and an emission wavelength of 590 nm. The intensity of this fluorescence is proportional to the amount of resorufin, which is proportional to the amount of PGG2 present in the well during the incubation. Percent inhibition is calculated by comparison from the 100% initial activity sample value (no inhibitor).

[2] = day 21, OX1, OX3, Nintedanib 30 mg/kg QD, Pirfenidone 100 mg/kg BID, oral
[3] = day 21, compared to vehicle (Group 2), OX1, OX3, Nintedanib 30 mg/kg QD, Pirfenidone 100 mg/kg BID

## NS(=O)(=O)c1ccc(-n2nc(CCCNC(=O)Nc3ccc(C(F)(F)F)cc3)cc2-c2ccccc2)cc1 [OX1, 4-(5-phenyl-3-{3-[3-(4-trifluoromethyl-phenyl)-ureido]-propyl}-pyrazol-1-yl)-benzenesulfonamide]
[1]; bleomycin mice, OX1 30 mg/kg QD oral gavage day -1 to 20, day 21 vs day -1, 30 mg/kg
  body weight change at end of experiment compared to starting point: −1% and ~1%
[1]; bleomycin mice, oral gavage day -1 to 20, OX1, OX3, Nintedanib 30 mg/kg QD, Pirfenidone 100 mg/kg BID
  body weight course over 21 days: lost the least weight
[1]; day 21, OX1 30 mg/kg QD oral
  lung weight (indicator of fluid accumulation and inflammation): performed best in reducing bronchoalveolar fluid (BALF) accumulation and inflammation
[1]; day 21, OX1 30 mg/kg QD oral, 30 mg/kg
  soluble collagen in BALF: most effective in controlling the overall collagen production; also recorded: most effective test article in lowering production of soluble collagen
[1]; [2]
  neutrophil migration into BALF: effective
  number of lymphocytes in BALF: most effective at maintaining a large number of lymphocytes
  total cell (leukocyte) count in BALF: did not demonstrate the same level of reduction
[1]; [3]
  increased collagen (fibrosis) score, trichrome: lowest tissue deposition of collagen; also recorded: markedly reduced
  mean Ashcroft score (lung histology): markedly reduced
  mean score for mixed peribronchiolar/perivascular inflammation: lower
Human sEH
  IC50: 2 nM
COX-2
  IC50: 100 nM

Source: US20220218667A1, “DUAL INHIBITORS OF SOLUBLE EPOXIDE HYDROLASE AND METHODS OF USE THEREOF” (OROX Biosciences, Inc., priority 2019, published 2022)
